According to PMC3930474 (Journal of controlled release : official journal of the …, 2013):

What was measured:
4T1 tumors [1] = assay: Tumor homing / tumor extravasation of FAM-labeled peptides and conjugates; type: in vivo, mouse; settings: FAM-labeled peptide i.v., three hours after the injection
4T1 tumors [2] = assay: Evans Blue assay; type: in vivo, mouse; settings: mice
[3] = mouse, in vivo, iv

CRGDK/RGPD/EC (disulfide) [iRGD]
peptide signal in the tumors (4T1 tumors [1]): had weakened | duration of the bystander effect after a bolus injection (4T1 tumors [2]): less than one hour | plasma half-life [3]: 8 min
